According to patent EP3529257B1, “[…] METHODS OF USE THEREOF” (Sage Therapeutics, Inc., priority 2016, dated 2018):

Key:
[1] = molecular target: T1, GlunN1/GluN2A glutamate receptors (Homo sapiens, UniProt Q05586+Q12879); test: Whole-cell patch clamp of mammalian cells (Ionworks Barracuda), positive allosteric modulation (PAM) of NMDA receptor, 2A; type: cell-based; details: for Emax: HEK293, HEK293 cells; for Emax / Avg Emax 2A (%): % activation of current elicited with EC20 L-glutamate and 30 µM glycine; for Avg Emax 2A (%) / EC50: HEK293 cells; for EC50: co-application with EC20 L-glutamate and 30 µM glycine, 8-point concentration-response
T1 construct: expressed in transfected cells
T1 sequence (Q12879 23-1464, other chains not shown): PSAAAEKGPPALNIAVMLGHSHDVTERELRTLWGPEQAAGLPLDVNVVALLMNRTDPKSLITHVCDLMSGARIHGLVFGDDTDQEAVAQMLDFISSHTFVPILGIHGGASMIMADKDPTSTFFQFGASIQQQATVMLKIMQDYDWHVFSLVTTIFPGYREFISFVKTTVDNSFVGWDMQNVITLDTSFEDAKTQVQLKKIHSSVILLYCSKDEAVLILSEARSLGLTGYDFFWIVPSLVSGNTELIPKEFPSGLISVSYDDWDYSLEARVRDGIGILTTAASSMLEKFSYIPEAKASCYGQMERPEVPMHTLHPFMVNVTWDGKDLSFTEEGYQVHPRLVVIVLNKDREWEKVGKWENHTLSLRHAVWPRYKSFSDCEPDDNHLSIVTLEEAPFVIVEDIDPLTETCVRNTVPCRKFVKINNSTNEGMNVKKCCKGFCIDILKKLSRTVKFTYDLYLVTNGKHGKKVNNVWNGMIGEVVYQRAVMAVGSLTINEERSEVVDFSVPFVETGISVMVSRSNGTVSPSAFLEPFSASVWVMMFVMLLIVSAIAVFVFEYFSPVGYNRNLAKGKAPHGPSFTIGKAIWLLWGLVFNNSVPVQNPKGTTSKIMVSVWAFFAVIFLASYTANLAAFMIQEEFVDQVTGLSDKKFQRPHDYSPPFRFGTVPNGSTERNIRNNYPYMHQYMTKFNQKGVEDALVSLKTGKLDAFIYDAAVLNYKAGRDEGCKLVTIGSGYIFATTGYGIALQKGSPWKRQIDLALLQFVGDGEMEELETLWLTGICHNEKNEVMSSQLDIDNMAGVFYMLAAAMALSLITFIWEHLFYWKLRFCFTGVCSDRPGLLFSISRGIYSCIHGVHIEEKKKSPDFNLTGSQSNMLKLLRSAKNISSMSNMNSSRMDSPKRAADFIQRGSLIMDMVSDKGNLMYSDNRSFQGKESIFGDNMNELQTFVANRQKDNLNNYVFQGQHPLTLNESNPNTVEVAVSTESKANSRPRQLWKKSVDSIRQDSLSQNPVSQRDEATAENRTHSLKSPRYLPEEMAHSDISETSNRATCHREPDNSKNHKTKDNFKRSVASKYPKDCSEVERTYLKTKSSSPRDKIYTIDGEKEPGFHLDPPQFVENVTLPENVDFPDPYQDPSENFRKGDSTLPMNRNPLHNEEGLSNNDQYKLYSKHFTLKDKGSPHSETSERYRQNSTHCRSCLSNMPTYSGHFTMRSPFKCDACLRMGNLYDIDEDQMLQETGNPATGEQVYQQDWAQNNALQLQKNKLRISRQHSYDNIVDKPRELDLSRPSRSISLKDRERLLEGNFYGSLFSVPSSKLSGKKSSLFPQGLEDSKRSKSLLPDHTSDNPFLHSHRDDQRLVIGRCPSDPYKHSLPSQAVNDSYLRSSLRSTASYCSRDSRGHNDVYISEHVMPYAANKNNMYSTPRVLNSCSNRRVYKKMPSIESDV
Protocol: (§1) The measurements were perfomed using Ion Works Barracuda platform following this procedure: • Electrophysiological Procedures: • a) Intracellular solution (mM): 50 mM CsCl, 90 mM CsF, 2 mM MgCl2, 5 mM EGTA, 10 mM HEPES. Adjust to pH 7.2 with CsOH. • b) Extracellular solution, HB-PS (composition in mM): NaCl, 137; KCl, 1.0; CaCl2, 5; HEPES, 10; Glucose, 10; pH adjusted to 7.4 with NaOH (refrigerated until use). • c) Holding potential: -70 mV, potential during agonist/PAM application: -40 mV. • Recording procedure: • a) Extracellular buffer will be loaded into the PPC plate wells (11 µL per well). Cell suspension will be pipetted into the wells (9 µL per well) of the PPC planar electrode. • b) Whole-cell recording configuration will be established via patch perforation with membrane currents recorded by on-board patch clamp amplifiers. • c) Two recordings (scans) will be performed. First, during pre-application of test article alone (duration of pre-application - 5 min) and second, during test articles and agonist (EC20 L-glutamate and 30 µM glycine) co-application to detect positive modulatory effects of the test article.
(§2) Test Article Administration: The first pre-application will consist of the addition of 20 µL of 2X concentrated test article solution and, second, of 20 µL of 1X concentrated test article and agonist at 10 µL/s (2 second total application time).
(§3) PAM concentration-response data will be fitted to an equation of the form: % Activation = % L−glutamate EC20 + {(%MAX−%L−glutamateEC20)/[1+(([Test]/; EC50))^N]}, [formula] where [Test] will be the concentration of PAM (test article), EC50 will be the concentration of PAM producing half-maximal activation, N will be the Hill coefficient, % L-glutamate EC20 will be the percentage of the current Elicited with L-glutamate EC20, % MAX is the percentage of the current activated with the highest dose of PAM co-admitted with L-glutamate EC20 and % Activation will be the percentage of the current elicited with L-glutamate EC10-30 at each PAM concentration.
(§4) The maximal amplitude of the evoked currents are measured and defined as Peak Current Amplitude (PCA).

[2] = molecular target: T2, GluN2B glutamate receptors (Homo sapiens, UniProt Q05586+Q13224); test: Whole-cell patch clamp of mammalian cells (Ionworks Barracuda), positive allosteric modulation (PAM) of NMDA receptor, 2B; type: cell-based; details: for Emax / Avg Emax 2B (%): % activation of current elicited with EC20 L-glutamate and 30 µM glycine; for EC50: co-application with EC20 L-glutamate and 30 µM glycine, 8-point concentration-response
T2 construct: expressed in transfected cells; host or cells: mammalian cells (line not described for GluN2B)
T2 sequence (Q13224 27-1484, other chains not shown): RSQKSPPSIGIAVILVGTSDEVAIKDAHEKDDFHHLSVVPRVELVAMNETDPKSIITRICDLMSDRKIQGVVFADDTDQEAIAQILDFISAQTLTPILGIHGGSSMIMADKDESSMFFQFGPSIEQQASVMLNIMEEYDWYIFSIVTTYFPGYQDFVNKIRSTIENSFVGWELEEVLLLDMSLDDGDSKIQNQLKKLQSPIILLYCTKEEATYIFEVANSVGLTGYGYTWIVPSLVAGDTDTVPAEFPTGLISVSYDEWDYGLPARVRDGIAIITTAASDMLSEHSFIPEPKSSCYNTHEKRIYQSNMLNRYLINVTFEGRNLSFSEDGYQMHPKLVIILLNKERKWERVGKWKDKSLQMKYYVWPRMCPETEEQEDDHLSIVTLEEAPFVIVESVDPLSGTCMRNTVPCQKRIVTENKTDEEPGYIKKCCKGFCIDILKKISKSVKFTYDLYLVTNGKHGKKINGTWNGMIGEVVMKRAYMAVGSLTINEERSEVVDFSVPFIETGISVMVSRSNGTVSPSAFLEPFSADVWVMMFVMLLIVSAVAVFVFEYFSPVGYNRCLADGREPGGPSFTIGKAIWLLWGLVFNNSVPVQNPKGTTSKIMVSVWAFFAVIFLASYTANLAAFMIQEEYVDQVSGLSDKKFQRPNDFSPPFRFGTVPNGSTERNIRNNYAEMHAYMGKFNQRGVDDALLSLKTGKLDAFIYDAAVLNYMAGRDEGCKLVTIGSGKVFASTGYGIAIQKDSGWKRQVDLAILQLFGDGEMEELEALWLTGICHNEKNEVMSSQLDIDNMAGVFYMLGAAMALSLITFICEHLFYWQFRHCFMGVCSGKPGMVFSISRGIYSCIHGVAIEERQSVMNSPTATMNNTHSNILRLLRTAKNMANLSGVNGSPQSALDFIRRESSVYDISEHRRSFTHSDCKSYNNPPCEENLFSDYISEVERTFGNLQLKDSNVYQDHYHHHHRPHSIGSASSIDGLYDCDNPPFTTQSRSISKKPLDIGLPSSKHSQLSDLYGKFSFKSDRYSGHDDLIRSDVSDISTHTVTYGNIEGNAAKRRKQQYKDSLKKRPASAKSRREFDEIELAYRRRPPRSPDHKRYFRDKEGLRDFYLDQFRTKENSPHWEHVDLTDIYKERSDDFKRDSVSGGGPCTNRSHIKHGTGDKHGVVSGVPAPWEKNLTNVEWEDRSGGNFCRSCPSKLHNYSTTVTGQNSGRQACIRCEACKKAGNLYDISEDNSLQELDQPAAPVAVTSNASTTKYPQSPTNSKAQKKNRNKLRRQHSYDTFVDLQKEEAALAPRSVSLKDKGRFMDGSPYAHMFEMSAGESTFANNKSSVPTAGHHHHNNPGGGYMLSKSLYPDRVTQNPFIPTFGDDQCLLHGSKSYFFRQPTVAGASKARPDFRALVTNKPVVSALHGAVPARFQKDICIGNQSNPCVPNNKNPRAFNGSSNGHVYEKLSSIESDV
Protocol: as §1, §2, §3, §4

| SMILES | Emax [1] [%] | Emax [2] [%] | Avg Emax 2A (%) [1] [%] | EC50 [1] [nM] | Avg Emax 2B (%) [2] [%] | EC50 [2] [nM] |
| --- | --- | --- | --- | --- | --- | --- |
| CC[C@]1(O)CC[C@H]2C(=CC[C@@H]3[C@@H]2CC[C@]2(C)[C@@H]([C@H](C)CC[C@H](O)C(C)C)CC[C@@H]32)C1 [Compound 8462] | 273 | 281 |  |  |  |  |
| C[C@H](O)CC[C@@H](C)[C@H]1CC[C@H]2[C@@H]3CC[C@H]4C[C@](O)(C(F)(F)F)CC[C@]4(C)[C@H]3CC[C@]12C [Compound 6] | 137 | 163 |  |  |  |  |
| C[C@H](CCC1(O)CCC(C)(C)CC1)[C@H]1CC[C@H]2[C@@H]3CC[C@@H]4C[C@](O)(C(F)(F)F)CC[C@]4(C)[C@H]3C(=O)C[C@]12C [Compound 5294] |  |  | 32.4 | > 10000 | 13.9 | > 10000 |
| CC[C@]1(O)CC[C@@]2(C)C(=CC[C@H]3[C@@H]4CC[C@H]([C@H](C)CC[C@H](O)c5ccc(F)cc5)[C@@]4(C)CC[C@@H]32)C1 [Compound 7146] | 104 | 167 |  |  |  |  |
| CC[C@]1(O)CC[C@@]2(C)C(=CC[C@H]3[C@@H]4CC[C@H]([C@H](C)CC[C@@H](O)c5ccccc5F)[C@@]4(C)CC[C@@H]32)C1 [Compound 7282] | 208 | 290 |  |  |  |  |
| C[C@H](CCC1(O)CCCCCC1)[C@H]1CC[C@H]2[C@@H]3CC[C@H]4C[C@](O)(C(F)(F)F)CC[C@]4(C)[C@H]3CC[C@]12C [Compound 3983] | 176 | 300 |  |  |  |  |
| C[C@H](CCC1(O)CCOCC1)[C@H]1CC[C@H]2[C@@H]3CC[C@H]4C[C@](O)(C(F)(F)F)CC[C@]4(C)[C@H]3CC[C@]12C [Compound 11] |  |  | 151.2 | 117 | 157.4 | 104 |
| C[C@H](CCC1(O)CCOC1)[C@H]1CC[C@H]2[C@@H]3CC=C4C[C@](O)(C(F)(F)F)CC[C@]4(C)[C@H]3CC[C@]12C (stereo partly shown) [Compound 10] | 632 | 362 |  |  |  |  |
| C[C@H](O)CCC[C@@H](C)[C@H]1CC[C@H]2[C@@H]3CC[C@H]4C[C@](O)(C(F)(F)F)CC[C@]4(C)[C@H]3CC[C@]12C [Compound 2113] |  |  | 402.7 | 380 | 285.0 | 413 |
| C[C@H](CC[C@]1(O)CC[C@H](C)CC1)[C@H]1CC[C@H]2[C@@H]3CC[C@H]4C[C@](O)(C(F)(F)F)CC[C@]4(C)[C@H]3CC[C@]12C [Compound 3877] | 42.4 | 71.1 |  |  |  |  |
| CC[C@]1(O)CC[C@H]2C(=CC[C@@H]3[C@@H]2CC[C@]2(C)[C@@H]([C@H](C)CC[C@]4(O)CCOC4)CC[C@@H]32)C1 [Compound 8603] | 294 | 271 |  |  |  |  |
| C[C@H](CCC[C@@H](C)O)[C@H]1CC[C@H]2[C@@H]3CC[C@H]4C[C@](O)(C(F)(F)F)CC[C@]4(C)[C@H]3CC[C@]12C [Compound 112] |  |  | 92.6 | 480 | 150.8 | 478 |
| CCC(O)CCC[C@@H](C)[C@H]1CC[C@H]2[C@@H]3CC=C4C[C@](O)(CC)CC[C@@H]4[C@H]3CC[C@]12C (stereo partly shown) [Compound 10673] |  |  | 215.5 | 254 | 213.5 | 180 |
| CC[C@H](O)CCC[C@@H](C)[C@H]1CC[C@H]2[C@@H]3CC=C4C[C@](O)(CC)CC[C@@H]4[C@H]3CC[C@]12C [Compound 10949] |  |  | 97.4 | 66.4 | 147.4 | 138 |
| CC[C@]1(O)CC[C@@]2(C)[C@@H](CC[C@@H]3[C@@H]2CC[C@]2(C)[C@@H]([C@H](C)CC[C@@H](O)c4ccccn4)CC[C@@H]32)C1 [Compound 7030] |  |  |  | > 10000 |  |  |
| C[C@H](CC[C@@](C)(O)c1ccccc1)[C@H]1CC[C@H]2[C@@H]3CC=C4C[C@@](C)(O)CC[C@]4(C)[C@H]3CC[C@]12C [Compound 7467] | 20.5 | 8.8 |  |  |  |  |
| CC(C)[C@H](O)CC[C@@H](C)[C@H]1CC[C@H]2[C@@H]3CC[C@H]4C[C@@](C)(O)CC[C@@H]4[C@H]3CC[C@]12C [Compound 1B75] |  |  | 278.8 | 165 | 233.1 | 183 |
| CC(C)[C@@H](O)CC[C@@H](C)[C@H]1CC[C@H]2[C@@H]3CC[C@H]4C[C@@](C)(O)CC[C@@H]4[C@H]3CC[C@]12C [Compound 1A75] |  |  | 457.2 | 671 | 308.0 | 440 |
| C[C@H](CCCC1(O)CC1)[C@H]1CC[C@H]2[C@@H]3CC[C@H]4C[C@](O)(C(F)(F)F)CC[C@]4(C)[C@H]3CC[C@]12C [Compound 4115] | 186 | 195 |  |  |  |  |
| C[C@H](CC[C@](C)(O)C(F)(F)F)[C@H]1CC[C@H]2[C@@H]3CC=C4C[C@@](C)(O)CC[C@@H]4[C@H]3CC[C@]12C [Compound 9062] |  |  | 66.5 | 34.5 | 52.2 | 179 |
| C[C@H](CC[C@@H](O)C(F)(F)F)[C@H]1CC[C@H]2[C@@H]3CC=C4C[C@](O)(C(F)(F)F)CC[C@]4(C)[C@H]3CC[C@]12C [Compound 3149] | 292 | 472 |  |  |  |  |
| CCC1(O)CCC2C(=CCC3C2CCC2(C)C(C(C)CCC4(O)CCOC4)CCC32)C1 (single isomer, unassigned) [Compound 8602] | 272 | 262 |  |  |  |  |
| C[C@H](CCC(O)(c1ccccc1)C(F)(F)F)[C@H]1CC[C@H]2[C@@H]3CC=C4C[C@@](C)(O)CC[C@]4(C)[C@H]3CC[C@]12C (stereo partly shown) [Compound 559] |  |  | 204.3 | 1570 | 373.2 | 1560 |
| C[C@H](CCC[C@H](O)C(C)(C)C)[C@H]1CC[C@H]2[C@@H]3CC[C@H]4C[C@](O)(C(F)(F)F)CC[C@]4(C)[C@H]3CC[C@]12C [Compound 12156] |  |  | 43.2 | 154 | 111.2 | 2460 |
| C[C@H](CCC(O)C(C)(C)C)[C@H]1CC[C@H]2[C@@H]3CC=C4C[C@](O)(C(F)(F)F)CC[C@]4(C)[C@H]3CC[C@]12C (stereo partly shown) [Compound 2500] | 303 | 300 |  |  |  |  |
| C[C@H](CC[C@@H](O)C(C)(C)C)[C@H]1CC[C@H]2[C@@H]3CC=C4C[C@](O)(C(F)(F)F)CC[C@]4(C)[C@H]3CC[C@]12C [Compound 3382] | 309 | 461 |  |  |  |  |
| C[C@H](CCC[C@@H](O)C(C)(C)C)[C@H]1CC[C@H]2[C@@H]3CC[C@H]4C[C@](O)(C(F)(F)F)CC[C@]4(C)[C@H]3CC[C@]12C [Compound 12055] |  |  | 113.8 | 506 | 184.7 | 1130 |
| C[C@H](CC[C@H](O)C(C)(C)C)[C@H]1CC[C@H]2[C@@H]3CC[C@@H]4C[C@](O)(C(F)(F)F)CC[C@]4(C)[C@H]3CC[C@]12C [Compound 3634] | 221 | 379 |  |  |  |  |
| C[C@H](CC[C@@H](O)C(C)(C)C)[C@H]1CC[C@H]2[C@@H]3CC[C@@H]4C[C@](O)(C(F)(F)F)CC[C@]4(C)[C@H]3CC[C@]12C [Compound 3788] | 229 | 410 |  |  |  |  |
| CC[C@]1(O)CC[C@@]2(C)[C@@H](CC[C@@H]3[C@@H]2CC[C@]2(C)[C@@H]([C@H](C)CC[C@H](O)c4ccccn4)CC[C@@H]32)C1 [Compound 7032] |  |  |  | > 10000 |  |  |
